Measured values as given in ChEMBL document CHEMBL1926604, “Design and synthesis of pyridin-2-ylmethylaminopiperidin-1-ylbutyl amide CCR5 antagonists that are potent inhibitors of M-tropic (R5) HIV-1 replication” (Bioorg Med Chem Lett, 2011).

How the values were obtained:
[1] = tested on: Human immunodeficiency virus 1; assay: Antiviral activity against R5 tropic Human immunodeficiency virus 1 BAL infected in human PBMC cells assessed as reduction in viral replication by p24 detection based ELISA; assay type: functional, organism-based
[2] = Cytotoxic activity against human PBMC assessed as reduction in cell viability; assay type: cell-based
[3] = Plasma protein binding in human plasma at 1 uM after 5 hrs by LC-MS/MS analysis; assay type: ADME, cell-free; details: read-out: PPB (converted)
[4] = AUC (0 to infinity) in rat; assay type: ADME, organism-based; design: time infinity; concentration or dose not given beside the values; details: plasma
[5] = Oral bioavailability in rat; assay type: ADME, organism-based; details: in vivo
[6] = Cmax in dog; assay type: ADME, organism-based, Canis lupus familiaris; details: in vivo
[7] = Half life in dog at 5 umol/kg, iv; assay type: ADME, organism-based, Canis lupus familiaris; details: in vivo
[8] = Oral bioavailability in dog; assay type: ADME, organism-based, Canis lupus familiaris; details: in vivo
[9] = Clearance in rat at 10 umol/kg, iv; assay type: ADME, organism-based; details: in vivo
[10] = AUC (0 to infinity) in dog; assay type: ADME, organism-based, Canis lupus familiaris; design: time infinity; concentration or dose not given beside the values; details: plasma
[11] = (§1) Half life in rat at 10 umol/kg, iv; assay type: ADME, organism-based; details: in vivo, 10 umol/kg
[12] = (§2) Volume of distribution at steady state in rat at 10 umol/kg, iv; assay type: ADME, organism-based; details: in vivo, 10 umol/kg, read-out: Vdss
[13] = Clearance in dog at 5 umol/kg, iv; assay type: ADME, organism-based, Canis lupus familiaris; details: in vivo
[14] = Cmax in rat; assay type: ADME, organism-based; details: in vivo
[15] = Volume of distribution at steady state in dog at 5 umol/kg, iv; assay type: ADME, organism-based, Canis lupus familiaris; details: in vivo, read-out: Vdss
Rattus norvegicus [16] = assay: as §1; assay type: ADME, organism-based; details: in vivo
Rattus norvegicus [17] = assay: as §2; assay type: ADME, organism-based; details: in vivo

CC(CCNC(=O)c1c(Cl)cncc1Cl)N1CCC(N(Cc2ccc(Cl)cc2)c2ccc(Br)cc2)CC1 (stereo not given)
IC50 [1]: > 1.3 µM
CC50 [2]: 4.3 µM

COc1ccc(N(Cc2cccnc2)C2CCN([C@H](C)CCNC(=O)c3c(C)cc(F)nc3C)CC2)cc1
IC50 [1]: 0.0296 µM
CC50 [2]: > 36.7 µM
fraction unbound at 5 h, 1 µM [3]: 0.14

COc1ccc(N(Cc2cnccc2C)C2CCN([C@H](C)CCNC(=O)c3c(C)cc(C#N)nc3C)CC2)cc1
IC50 [1]: 0.0254 µM
CC50 [2]: > 34.8 µM
fraction unbound at 5 h, 1 µM [3]: 0.02

Cc1ccncc1CN(c1ccc([S+](C)[O-])cc1)C1CCN([C@H](C)CCNC(=O)c2c(C)ncnc2C)CC1 (stereo not given in full)
IC50 [1]: > 32.1 µM
CC50 [2]: > 32.4 µM

COCCOc1ccc(N(Cc2cnccc2C)C2CCN([C@H](C)CCNC(=O)c3c(C)cc(Cl)nc3C)CC2)cc1
IC50 [1]: 0.002 µM
AUC(0-inf) [4]: 7.18 µM·h
bioavailability [5]: 27%
CC50 [2]: > 32.7 µM
Cmax [6]: 10 nM
half-life [7]: 1.3 h
bioavailability [8]: < 1%
clearance [9]: 61.2 mL/min/kg
AUC(0-inf) [10]: 0.02 µM·h
half-life [11]: 1.7 h
Vd [12]: 9.2 L/kg
clearance [13]: 157 mL/min/kg
Cmax [14]: 1070 nM
Vd [15]: 4.9 L/kg
fraction unbound at 5 h, 1 µM [3]: 0.15

Cc1ccncc1CN(c1ccccc1)C1CCN([C@H](C)CCNC(=O)c2c(C)cc(C#N)nc2C)CC1
fraction unbound at 5 h, 1 µM [3]: 0.06

CC(CCNC(=O)c1c(Cl)cncc1Cl)N1CCC(N(Cc2ccccc2)c2ccc(Br)cc2)CC1 (stereo not given)
IC50 [1]: 0.22 µM

COc1ccc(N(Cc2cccc(C#N)n2)C2CCN([C@H](C)CCNC(=O)c3c(C)cc(Cl)nc3C)CC2)cc1
IC50 [1]: 0.0035 µM
CC50 [2]: > 35.1 µM
Cmax [6]: 520 nM
half-life [7]: 0.8 h
bioavailability [8]: 15%
AUC(0-inf) [10]: 0.72 µM·h
clearance [13]: 42.7 mL/min/kg
Vd [15]: 3 L/kg
fraction unbound at 5 h, 1 µM [3]: 0.16

CC(CCNC(=O)c1c(Cl)cncc1Cl)N1CCC(N(Cc2ccccc2)c2ccc(C(F)(F)F)cc2)CC1 (stereo not given)
IC50 [1]: 0.11 µM
CC50 [2]: 8.1 µM

COc1ccc(N(Cc2cccc(C#N)n2)C2CCN([C@H](C)CCNC(=O)c3c(C)cc(F)nc3C)CC2)cc1
IC50 [1]: 0.0036 µM
CC50 [2]: > 35.8 µM
fraction unbound at 5 h, 1 µM [3]: 0.21

COc1ccc(N(Cc2cnccc2C)C2CCN([C@H](C)CCNC(=O)c3c(C)ccnc3C)CC2)cc1
IC50 [1]: 1.04 µM
CC50 [2]: > 38.9 µM
fraction unbound at 5 h, 1 µM [3]: 0.05

COc1cccc(CN(c2ccc(Br)cc2)C2CCN(C(C)CCNC(=O)c3c(Cl)cncc3Cl)CC2)c1 (stereo not given)
IC50 [1]: 2.88 µM
CC50 [2]: 6.4 µM

COCCOc1ccc(N(Cc2cnccc2C)C2CCN([C@H](C)CCNC(=O)c3c(C)cc(C#N)nc3C)CC2)cc1
IC50 [1]: 0.0323 µM
CC50 [2]: > 32.6 µM
fraction unbound at 5 h, 1 µM [3]: 0.08

Cc1ccncc1CN(c1ccc(OCC(N)=O)cc1)C1CCN([C@H](C)CCNC(=O)c2c(C)cc(C#N)nc2C)CC1
IC50 [1]: 0.0033 µM
CC50 [2]: > 34.3 µM
fraction unbound at 5 h, 1 µM [3]: 0.11

COCCOc1ccc(N(Cc2cnccc2C)C2CCN([C@H](C)CCNC(=O)c3c(C)cc(F)nc3C)CC2)cc1
IC50 [1]: 0.0231 µM
CC50 [2]: > 32.7 µM
fraction unbound at 5 h, 1 µM [3]: 0.19

CC(CCNC(=O)c1c(Cl)cncc1Cl)N1CCC(N(Cc2cccc(C#N)c2)c2ccc(C(F)(F)F)cc2)CC1 (stereo not given)
IC50 [1]: 0.001 µM
CC50 [2]: 12.3 µM

CC(CCNC(=O)c1c(Cl)cncc1Cl)N1CCC(N(Cc2cccc(C#N)c2)c2ccc(Br)cc2)CC1 (stereo not given)
IC50 [1]: 0.089 µM
CC50 [2]: 6.7 µM

CC(CCNC(=O)c1c(Cl)cncc1Cl)N1CCC(N(Cc2cccc(Cl)c2)c2ccc(Br)cc2)CC1 (stereo not given)
IC50 [1]: 0.4 µM
CC50 [2]: 7.3 µM

COc1ccc(N(Cc2ccccc2)C2CCN(C(C)CCNC(=O)c3c(Cl)cncc3Cl)CC2)cc1 (stereo not given)
IC50 [1]: 2.17 µM
CC50 [2]: 36.5 µM

CC(CCNC(=O)c1c(Cl)cncc1Cl)N1CCC(N(Cc2ccccc2Cl)c2ccc(Br)cc2)CC1 (stereo not given)
IC50 [1]: > 1.25 µM
CC50 [2]: 5.7 µM

CC(CCNC(=O)c1c(Cl)cncc1Cl)N1CCC(N(Cc2ccccc2)c2ccc(OC(F)(F)F)cc2)CC1 (stereo not given)
IC50 [1]: 0.059 µM
CC50 [2]: 4 µM

COc1ccc(N(Cc2cccc(C#N)n2)C2CCN([C@H](C)CCNC(=O)c3c(C)cc(C#N)nc3C)CC2)cc1
IC50 [1]: 0.0039 µM
CC50 [2]: > 36.3 µM
fraction unbound at 5 h, 1 µM [3]: 0.09

COc1ccc(N(Cc2cccc(C#N)c2)C2CCN(C(C)CCNC(=O)c3c(Cl)cncc3Cl)CC2)cc1 (stereo not given)
IC50 [1]: 0.014 µM
CC50 [2]: > 1.76 µM

CC(CCNC(=O)c1c(Cl)cncc1Cl)N1CCC(N(Cc2ccccc2)c2ccc(C(=O)N(C)C)cc2)CC1 (stereo not given)
IC50 [1]: 9.63 µM
CC50 [2]: > 30 µM

CC(CCNC(=O)c1c(Cl)cncc1Cl)N1CCC(N(Cc2ccccc2)c2ccc(Oc3ccc(C(=O)O)cc3)cc2)CC1 (stereo not given)
IC50 [1]: 0.096 µM
AUC(0-inf) [4]: 9.07 µM·h
bioavailability [5]: 16%
CC50 [2]: 22.1 µM
Cmax [6]: 11200 nM
half-life [7]: 1.5 h
bioavailability [8]: 35%
clearance [9]: 30 mL/min/kg
AUC(0-inf) [10]: 14.5 µM·h
half-life [11]: 4.8 h
Vd [12]: 4.2 L/kg
clearance [13]: 5 mL/min/kg
Cmax [14]: 2790 nM
Vd [15]: 0.4 L/kg
fraction unbound at 5 h, 1 µM [3]: < 0.001

CC(CCNC(=O)c1c(Cl)cncc1Cl)N1CCC(N(Cc2cccc(C#N)c2)c2ccc(C#N)cc2)CC1 (stereo not given)
IC50 [1]: 0.376 µM
CC50 [2]: 33.6 µM

COc1ccc(N(Cc2cccnc2)C2CCN([C@H](C)CCNC(=O)c3c(C)cc(Cl)nc3C)CC2)cc1
IC50 [1]: 0.0189 µM
AUC(0-inf) [4]: 4.83 µM·h
bioavailability [5]: 23%
CC50 [2]: > 37.3 µM
Cmax [6]: 1570 nM
half-life [7]: 13.2 h
bioavailability [8]: 37%
AUC(0-inf) [10]: 2.73 µM·h
t1/2 (Rattus norvegicus [16]): 8.6 h
Vdss (Rattus norvegicus [17]): 50.5 L/kg
clearance [13]: 23.3 mL/min/kg
Cmax [14]: 1330 nM
Vd [15]: 26.7 L/kg
fraction unbound at 5 h, 1 µM [3]: 0.07

COc1ccc(N(Cc2cnccc2C)C2CCN([C@H](C)CCNC(=O)c3c(C)cc(F)nc3C)CC2)cc1
IC50 [1]: 0.0022 µM
AUC(0-inf) [4]: 10.9 µM·h
bioavailability [5]: 3%
CC50 [2]: > 36.3 µM
Cmax [6]: 410 nM
half-life [7]: 3 h
bioavailability [8]: 10%
clearance [9]: 16.6 mL/min/kg
AUC(0-inf) [10]: 0.65 µM·h
half-life [11]: 3.3 h
Vd [12]: 4.6 L/kg
clearance [13]: 32 mL/min/kg
Cmax [14]: 1270 nM
Vd [15]: 8.3 L/kg
fraction unbound at 5 h, 1 µM [3]: 0.21

CC(CCNC(=O)c1c(Cl)cncc1Cl)N1CCC(N(Cc2cccc(C#N)c2)c2ccc(OC(F)(F)F)cc2)CC1 (stereo not given)
IC50 [1]: 0.002 µM
AUC(0-inf) [4]: 7.3 µM·h
bioavailability [5]: 57%
CC50 [2]: 6 µM
Cmax [6]: 750 nM
half-life [7]: 5.4 h
bioavailability [8]: 36%
clearance [9]: 132 mL/min/kg
AUC(0-inf) [10]: 5.11 µM·h
half-life [11]: 5 h
Vd [12]: 23.7 L/kg
clearance [13]: 15 mL/min/kg
Cmax [14]: 530 nM
Vd [15]: 6 L/kg
fraction unbound at 5 h, 1 µM [3]: < 0.001

COc1ccc(N(Cc2cnccc2C)C2CCN([C@H](C)CCNC(=O)c3c(C)cc(C(=O)NC(C)C)nc3C)CC2)cc1
IC50 [1]: 0.00096 µM
CC50 [2]: > 32.8 µM
Cmax [6]: 920 nM
half-life [7]: 2.8 h
bioavailability [8]: 5%
AUC(0-inf) [10]: 0.48 µM·h
clearance [13]: 21.1 mL/min/kg
Vd [15]: 5.2 L/kg
fraction unbound at 5 h, 1 µM [3]: 0.11

COC(=O)c1ccc(N(Cc2ccccc2)C2CCN(C(C)CCNC(=O)c3c(Cl)cncc3Cl)CC2)cc1 (stereo not given)
IC50 [1]: 0.177 µM
CC50 [2]: 21.4 µM

CC(CCNC(=O)c1c(Cl)cncc1Cl)N1CCC(N(Cc2ccccc2)c2ccc(C#N)cc2)CC1 (stereo not given)
IC50 [1]: 0.38 µM
CC50 [2]: 9.7 µM

COc1ccc(N(Cc2cnccc2C)C2CCN([C@H](C)CCNC(=O)c3c(C)cncc3C)CC2)cc1
IC50 [1]: 11.5 µM
CC50 [2]: > 38.8 µM

COc1ccc(N(Cc2cnccc2C)C2CCN([C@H](C)CCNC(=O)c3c(C)ccnc3Cl)CC2)cc1
IC50 [1]: 0.0223 µM
AUC(0-inf) [4]: 18.3 µM·h
bioavailability [5]: 70%
CC50 [2]: > 37.7 µM
Cmax [6]: 150 nM
half-life [7]: 3.3 h
bioavailability [8]: 4%
clearance [9]: 58.7 mL/min/kg
AUC(0-inf) [10]: 0.2 µM·h
half-life [11]: 3 h
Vd [12]: 15.4 L/kg
clearance [13]: 36.5 mL/min/kg
Cmax [14]: 3110 nM
Vd [15]: 10.3 L/kg
fraction unbound at 5 h, 1 µM [3]: 0.12
